In paper PMC10804683, “Identification of the pyridoxal 5′‐phosphate allosteric site in human pyridox(am)ine 5′‐phosphate oxidase” (Protein Science : A Publication of the Protein Society, 2024):
Where a chain is given by its changes, count along the chain named.

Columns and labels:
[1] = target: T1, human PNPO F48A/E50L/R161C/R258L variant (Homo sapiens, UniProt Q9NVS9, E50L/F48A/R161C/R258L); assay: PLP binding by DSF, F48A/E50L/R161C/R258L
T1 construct: a main form corresponding to the entire protein; made in house; host or cells: E. coli BL21(DE3)
T1 sequence (Q9NVS9 1-261 F48A/E50L/R161C/R258L): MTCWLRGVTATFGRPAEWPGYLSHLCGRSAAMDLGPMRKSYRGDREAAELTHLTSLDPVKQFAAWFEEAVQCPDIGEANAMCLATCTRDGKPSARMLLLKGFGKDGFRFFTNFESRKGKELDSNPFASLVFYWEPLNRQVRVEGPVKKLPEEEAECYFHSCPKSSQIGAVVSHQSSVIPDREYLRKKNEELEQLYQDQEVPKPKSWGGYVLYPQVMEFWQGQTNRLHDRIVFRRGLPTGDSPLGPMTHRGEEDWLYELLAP
From the text: PLP binding to PNPO can be detected and quantitatively measured using differential scanning fluorimetry (DSF) and also by measuring FMN fluorescence changes. We had previously attributed DSF changes to PLP binding at the active site, while FMN fluorescence changes were attributed to PLP binding at the allosteric site (Barile et al., [2019], [2020]). Previous experiments carried out with the PNPO R161C variant, affecting a residue that is essential for substrate binding and catalysis (and therefore also for PLP binding at the active site), confirms that DSF measurements only report PLP binding at the active site (Barile et al., [2021]; Table 1). The dissociation constant values obtained with DSF are almost the same for the three variants and doubled with respect to the wild type enzyme (Figure 2, Table 1). This behavior reflects the decrease of affinity of these variants for the substrates compared to the wild type PNPO. We expected to observe no FMN fluorescence changes upon titration of the variants with PLP. However, this was not the case, and the dissociation constant values obtained by observing the FMN fluorescence emission were only up to threefold larger in the variants with respect to wild type PNPO (Figure 3). […] To check the second possibility, we measured intrinsic fluorescence changes of wild type and variant apo‐forms (i.e., without FMN) upon PLP titration. […]

human PNPO wild type = target: T2, human PNPO wild type (Homo sapiens, UniProt Q9NVS9); design: a main form corresponding to the entire protein; made in house; host or cells: E. coli BL21(DE3); method as in Barile et al. ([2020]); conditions: DSF, ref Barile et al. ([2020]), read-out: PLP binding KD^DSF; cited from earlier work
T2 sequence (Q9NVS9 1-261): T1 sequence (Q9NVS9 1-261 F48A/E50L/R161C/R258L) with A48F, L50E, C161R, L258R

Cc1ncc(COP(=O)(O)O)c(C=O)c1O [PLP, pyridoxal 5′‐phosphate]
PLP binding KD^DSF [1]: No binding
Kd (human PNPO wild type): 3.2 ± 0.2 µM
